Measured values published in patent US6808873B2, “Screening assays using intramitochondrial calcium” (MitoKor, Inc., priority 2000, dated 2004).

Experiments:
[1] = test system: Ca^2+ uniporter; assay: Ca^2+ uniporter assay, adherent permeabilized MixCon cells, Calcium-Green-5N on FLIPR, with respiratory inhibitors; format: cell-based; settings: 10 micromolar Ca^2+; for Ca^2+-5N fluorescence after the second Ca^2+ pulse, presence of succinate: oligomycin 5 micrograms/milliliter and rotenone 2 micromolar together (MM-GMS-TD-OR), 5 millimolar succinate; for Ca^2+-5N fluorescence after the second Ca^2+ pulse, presence of succinate / Ca^2+-5N fluorescence after the second Ca^2+ pulse, absence of succinate: FIG. 8; for signal corresponding to extramitochondrial calcium after each Ca^2+ pulse: oligomycin 5 micrograms/milliliter or rotenone 2 micromolar, three pulses, FIG. 7; for Ca^2+-5N fluorescence after the second Ca^2+ pulse, absence of succinate: oligomycin 5 micrograms/milliliter, rotenone 2 micromolar, glutamate/malate medium
Experimental: Mitochondrial inhibitors of oxidative phosphorylation, oligomycin and rotenone, were used to observe the effect of decreased membrane potential of mitochondria on cytosol Ca^2+ levels in the adherent cell line MixCon. The adherent MixCon cells in Dulbecco's modified Eagle's medium and 10% FBS growth media were dispensed into wells of a 96-well microtiter plate at a concentration of about 6×10^4 cells in 100 microliters per well 48 hours prior to assay. Just prior to their use the growth media was aspirated from the wells. Ninety (90) microliters of MM-TD with oligomycin (5 micrograms/milliliter) or rotenone (2 micromolar), or MM-TD without either inhibitor, were added to the cells. The plate was placed in a FLIPR™ system, and three doses of the 10× stock (100 micromolar) solution of calcium were dispensed into the different wells at approximately 2 minute intervals with increasing volumes (10, 11.1, and 12.3 microliters respectively), resulting in a constant concentration of 10 micomolar Ca^2+ throughout the course of the assay. Emissions at the 531 nm wavelength were monitored by a FLIPR™ as a measure of extramitochondrial Ca^2+-Green-5N fluorescence. The signal corresponding to extramitochondrial calcium increased after each pulse and, in samples when remained high when in the presence of the two inhibitors. Alternatively, Ca^2+ is sequestered in mitochondria of cells not exposed to inhibitors (FIG. 7).
Another assay was performed to examine the effect by the respiratory inhibitors oligomycin and rotenone and subsequent release of Ca^2+ from mitochondria in the presence or absence of succinate in MixCon cells. Two different master mixes (MM and MM-GMS) were prepared with MM prepared as previously described. MM-GMS was prepared by the addition of glutamate, malate and succinate to final concentrations of 5 millimolar each, MgCl2 to a final concentration of 1 millimolar, EGTA to a final concentration of 10 micromolar, and Calcium-Green-5N to a final concentration of 0.1 micromolar, to a basic KCl-based respiratory media (BReM, Table 3). Thapsigargin was added to the MM and MM-GMS to a final concentration of 1 micromolar to yield MM-T and MM-GMS-T (where “T” indicates Thapsigargin and “GMS” indicates glutamate, malate and succinate. The cell permeabilizing agent digitonin was added to MM-T and MM-GMS-T to a final concentration of 0.03% to yield solutions designated as MM-TD and MM-GMS-TD. As indicated in some instances, the mitochondrial inhibitors oligomycin and rotenone (Calbiochem) were each added to solutions of MM-TD and MM-GMS-TD to final concentrations of 5 micrograms/milliliter and 2 micromolar, respectively.
CaCl2 was added to MM-T and MM-GMS-T to a concentration of 50 micromolar Ca^2+ to yield 5× Ca^2+ solutions in MM-T and MM-GMS-T, respectively. Versions of the 5× Ca^2+ stock solutions comprising respiratory inhibitors were also prepared (oligomycin, final concentration of 50 micrograms/milliliter; rotenone, 20 micromolar).
The MixCon cells, in Dulbecco's modified Eagle's medium and 10% FBS growth media, were dispensed into wells of a 96-well Costar 3603 microtiter plate at a concentration of 6×10^4 cells in one hundred microliters per well, 48 hours prior to the assay. Just prior to their use the growth media was aspirated from the wells. Eighty (80) microliters of MM-TD, MM-GMS-TD, MM-TD-O, MM-TD-R, and MM-GMS-TD-OR (where “O” oligomycin and “R” signifies rotenone) were dispensed into wells containing the cells. The microtiter plate was placed in a FLIPR™ preheated to 37° C. and an initial injection of 20 microliters of the 5× stock solutions (50 micromolar) of Ca^2+, with olygomycin, rotenone or no additions, were dispensed into the appropriate wells such that the Ca^2+ concentration in the assay is 10 micromolar and wells with the inhibitors remain at constant assay concentrations.
A second pulse of 25 microliters of the 5× solution was supplied after approximately 5 minutes. […]

[2] = test system: calcium uniporter (CaUP); assay: Calcium uniporter (CaUP) functional assay, suspended permeabilized L6 cells, FLIPR; format: cell-based, rat; settings: 5 microgram/milliliter oligomycin and 2 micromolar rotenone together, 16 micromolar Ca^2+; FIG. 9
Experimental: A series of functional assays were performed on non-adherent cell lines in order to optimize the mitochondria Ca—UP assay on FLIPR using Calcium-Green-5N and digitonin permeabilized cells. A dose response of Ca^2+ pulses with and without the addition of mitochondria oxidative respiration uncouplers were performed utilizing cells from […]. MM with thapsigarin, MM-T, and digitonin, MM-TD, are prepared as previously described. Ten times (10×) Ca^2+ media is prepared by adding CaCl2 (160 micromolar) to MM-T. The L6 cells were suspended in the cell permeabilizing respiratory media MM-TD at a concentration of 1×10^7 cells per milliliter. […] Emissions resulting from [Ca^2+:Calcium-Green-5N] complexes were monitored at the appropriate wavelength so as to follow changes in intracellular Ca^2+ levels throughout the assay.
Functional assays of the calcium uniporter (CaUP) were similarly performed on non-adherent L6 cells, as described above, with respiratory inhibitors oligomycin and rotenone in order to observe the effects of elimination of the membrane potential using this high throughput FLIPR. […] The emission wavelength was monitored and intracellular Ca^2+ levels observed throughout assay. […] When media with no Ca^2+ is added, the fluorescence changes only minimally (rows 3 and 4)] […]

[3] = molecular target: T1, Ca^2+ uniporter (Homo sapiens, UniProt Q8NE86); assay: Ca^2+ uniporter assay, digitonin-permeabilized suspended HepG2 cells, Calcium-Green-5N on FLIPR, ICMA added between two Ca^2+ pulses; format: cell-based; settings: 5 micrograms/milliliter oligomycin, 2 micromolar rotenone, 1 micromolar FCCP; for release of sequestered Ca^2+ from mitochondria after addition of the agent: added about 3 min after first 12 micromolar Ca^2+ pulse, thapsigargin present; for mitochondrial uptake of the second Ca^2+ pulse: second Ca^2+ pulse at about t=6 min, 1 micromolar RU360
T1 construct: The effects of several intracellular Ca^2+ modulating agents (ICMAs) on permeabilized HepG2 cells were examined; endogenous in cells; host or cells: HepG2 (ATCC HB-8065), digitonin-permeabilized, in suspension
T1 sequence (Q8NE86 51-351): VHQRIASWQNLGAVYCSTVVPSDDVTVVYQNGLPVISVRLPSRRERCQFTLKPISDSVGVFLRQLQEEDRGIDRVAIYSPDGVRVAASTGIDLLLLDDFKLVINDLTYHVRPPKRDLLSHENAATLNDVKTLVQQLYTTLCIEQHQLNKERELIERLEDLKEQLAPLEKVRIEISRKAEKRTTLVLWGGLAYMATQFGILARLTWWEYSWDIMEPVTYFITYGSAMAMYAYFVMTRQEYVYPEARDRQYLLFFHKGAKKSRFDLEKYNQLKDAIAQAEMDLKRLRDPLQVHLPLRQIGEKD
T1 sequence (Q9H4I9 48-107 partner limits assumed): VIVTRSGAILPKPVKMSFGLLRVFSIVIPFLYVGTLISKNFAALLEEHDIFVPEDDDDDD
Experimental: A master mix solution (MM Solution) was prepared by the addition of glutamate and malate to final concentrations of 5 millimolar each, MgCl2 to a final concentration of 1 millimolar, EGTA to a final concentrations of 0 to 8 micromolar, and Calcium-Green-5N to a final concentration of 0.1 to 1.0 micromolar, to a basic KCl-based respiratory media (“BReM”) that is described in Table 3. […] The hexapotassiun salt Calcium-Green-5N (Molecular Probes, Eugene, Oreg.) in the MM Solution is a fluorescent dye that has low binding affinity to Ca^2+.
Thapsigargin (Calbiochem, San Diego, Calif.), a Ca^2+ uptake inhibitor of the endoplasmic reticulum (ER), was added to the MM Solution to a final concentration of 1 micromolar to yield a solution designated “MM-T” (i.e., Master Mix with Thapsigargin).
The cell membrane permeabilizing agent digitonin (Sigma, St. Louis, Mo.) was added to MM-T to a final concentration of from about 0.007% to about 0.03% to yield a solution referred to as “MM-TD” (i.e., Master Mix with Thapsigargin and digitonin. CaCl2 was added to MM-T to provide a solution with a determined final concentration of Ca^2+ for the determination of intracellular Ca^2+ flux.
The effects of several intracellular Ca^2+ modulating agents (ICMAs) on permeabilized HepG2 cells were examined as follows. The mitochondrial respiratory inhibitors oligomycin (Calbiochem, San Diego, Calif.) and rotenone (Calbiochem) were added to MM-T to final concentrations of 50 micrograms/milliliter and 20 micromolar, respectively. The uncoupler FCCP was similarly added to MM-T to a 10× concentration (10 micromolar) to yield a stock solution of FCCP, MM-TF (i.e., Master Mix with Thapsigargin and FCCP). The ICMA Ru360, which blocks Ca^2+ uptake into the mitochondria by the calcium uniporter, was added to MM-T to a concentration of 100 micromolar to yield MM-T360 (i.e., Master Mix with Thapsigragin and Ru360). CaCl2 was added to MM-T to yield a 10× solution of CaCl2 (120 micromolar) in MM-T.
HepG2 cells were cultured in Eagle's minimal essential medium (MEM) with non-essential amino acids, sodium pyruvate and Earle's balanced salt solution (BSS), 90%; fetal bovine serum (FBS), 10%. Cells were centrifuged (500×g) and the growth media was aspirated from the pellet. The HepG2 cells were resuspended in MM-TD at a concentration of 1×10^7 cells/milliliter, and 100 microliters of the resuspended permeabilized cells were dispensed into wells of a 96-well Costar 3603 microplate. The plate was placed into a FLIPR™ prewarmed to 37° C. MM-T, 120 micromolar Ca^2+, was dispensed into the cell-containing wells at a volume of 11.1 microliters, yielding a final assay concentration of 12 micromolar Ca^2+. The addition of Ca^2+ at this stage of the assay is referred to as the first calcium pulse and the time at which Ca^2+ is added is designated t=0.
After about three minutes (i.e., at about t=3 min.), 12.3 microliters of one of the ICMA solutions were dispensed into wells containing permeabilized cells to yield final assay concentrations of 5 micrograms/milliliter oligomycin, 2 micromolar rotenone, 1 micromolar FCCP, 1 micromolar RU360, and MM-T (no ICMA).
Cells were exposed to a second calcium pulse by the addition of 13.7 microliters of MM-T, 120 micromolar Ca^2+, to the cells after an additional 3 minutes (i.e., at about t=6 min.).

[4] = molecular target: T1, Ca^2+ uniporter; assay: High-throughput uniporter assay of different compounds, permeabilized HepG2 cells with and without thapsigargin, FLIPR II; format: cell-based; settings: test compounds 1 micromolar
Excerpt: The high-throughput uniporter assay protocol, carried out as described above for suspension cells, was used to determine the effect of different compounds on mitochondria and extramitochondrial Ca^2+ concentrations in the presence or absence of the Ca^2+ uptake inhibitor of the endoplasmic reticulum, thapsigargin (Calbiochem). Agents examined in this assay include calcium channel inhibitors, pro- and anti-oxidants, mitochondrial inhibitors and uncouplers, and the Ca—UP inhibitor Ru360. On the day of the assay, solutions of the respiratory/cell permeabilizing media containing digitonin with thapsigarin (MM-TD) and without thapsigarin (MM-D) were prepared as previously described. Calcium chloride was added to each to a final concentration of 6 micromolar Ca^2+, resulting in MM-TD, 6 uM Ca and MM-D, 6 uM Ca. A MM solution was prepared with a 10× Ca^2+ concentration of 200 micromolar for the second Ca^2+ pulse. The Ca^2+-uniporter inhibitor Ru360 was prepared at a 10× concentration of 100 microliters in MM. Ten times (10×) stock solutions of the other agents were prepared for the assay by the addition of the compounds to final concentrations of 10 micromolar into MM. […] Controls include water and 10% DMSO (Sigma) in MM.
Cells of the HepG2 cell line (hepatocellular carcinoma, ATCC HB-8065) were trypsinized from near-confluent flasks in growth media (Eagle's MEM with non-essential amino acids, sodium pyruvate and Earle's BSS, 90%; FBS 10%). Cells were centrifuged, growth media was aspirated, and cells were resuspended to a concentration of 1×10^7 cells per milliliter in MM-TD, 6 uM Ca, or MM-D, 6 uM Ca. One hundred (100) microliters of the cell suspension (about 1×10^6 cells) were delivered to wells of a microtiter plate. The plate was placed in a FLIPR™ II (used in 96-well format) warmed to 37° C. An 11.1 microliter aliquot of the 10× stock solutions with water or DMSO (controls), Ru360 (Ca—UP inhibitor), or the test compounds, were dispensed into designated wells such that the assay concentration of DMSO is 0.1%, Ru360 is 10 micromolar, and each of the test compounds are at 1 micromolar concentrations. After an additional three minutes, a second addition of 12.3 microliters of the 10× CaCl2 (200 micromolar Ca^2+), was dispensed into the wells of the microtiter plate resulting in assay concentrations of 20 micromolar Ca^2 (Extramitochondrial Ca^2+ bound to the calcium indicator dye was monitored throughout and profiles of each assay; the results are presented in FIG. 12, with all thapsigargin minus (thaps−) assays in wells corresponding to columns 1-6 and thapsigargin plus (thaps+) assays in wells corresponding to columns 7-12.

| SMILES | Ca^2+-5N fluorescence after the second Ca^2+ pulse, presence of succinate [1] | signal corresponding to extramitochondrial calcium after each Ca^2+ pulse [1] | Ca^2+-5N fluorescence after the second Ca^2+ pulse, absence of succinate [1] | mitochondrial sequestration of added Ca^2+ [2] | release of sequestered Ca^2+ from mitochondria after addition of the agent [3] | mitochondrial uptake of the second Ca^2+ pulse [3] | uniporter activity profile after the 20 micromolar Ca^2+ pulse [4] |
| --- | --- | --- | --- | --- | --- | --- | --- |
| CC[C@H]1/C=C/C=C/C[C@@H](C)[C@H](O)[C@@](C)(O)C(=O)[C@@H](C)[C@H](O)[C@@H](C)C(=O)[C@@H](C)[C@H](O)[C@@H](C)/C=C/C(=O)O[C@@H]2[C@H](C)[C@H](CC1)O[C@]1(CC[C@H](C)[C@H](C[C@@H](C)O)O1)[C@H]2C [oligomycin] | reduction of Ca^2+-5N fluorescence after the second Ca^2+ pulse | remained high | elevated levels of Ca^2+-5N fluorescence after the second Ca^2+ pulse | Ca^2+ is not sequestered in the mitochondria | caused the release of Ca^2+ from mitochondria into the cytosol | could not sequester the added Ca^2+ | – |
| C=C(C)[C@H]1Cc2c(ccc3c2O[C@@H]2COc4cc(OC)c(OC)cc4[C@@H]2C3=O)O1 [rotenone] | reduction of Ca^2+-5N fluorescence after the second Ca^2+ pulse | remained high | elevated levels of Ca^2+-5N fluorescence after the second Ca^2+ pulse | Ca^2+ is not sequestered in the mitochondria | caused the release of Ca^2+ from mitochondria into the cytosol | could not sequester the added Ca^2+ | Ca^2+ can no longer be sequestered by the mitochondria |
